Test results: PubChem BioAssay (NCI)
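Five compound concentrations were applied to cells in 96-well plates for 48 hours; endpoints were derived by simple linear interpolation of the resulting dose-response curve. GI50 marks 50% less growth. TGI: total growth inhibition.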

Columns and labels:
Assay in all cases: growth of human tumour cells (NCI), 48 h
[1] = system: UACC-257 melanoma
[2] = system: OVCAR-3 ovarian
[3] = system: NCI/ADR-RES ovarian
[4] = system: HOP-92 NSCLC
[5] = system: HCT-116 colon
[6] = system: COLO 205 colon
[7] = system: M14 melanoma
[8] = system: NCI-H226 lung
[9] = system: NCI-H522 lung
[10] = system: MALME-3M melanoma
[11] = system: SW-620 colon
[12] = system: HS 578T breast
[13] = system: IGROV1 ovarian
[14] = system: A549 NSCLC
[15] = system: NCI-H460 lung
[16] = system: SK-MEL-2 melanoma
[17] = system: MDA-MB-231 breast
[18] = system: PC-3 prostate
[19] = system: SN12C renal
[20] = system: TK-10 renal
[21] = system: 786-0 renal
[22] = system: DU-145 prostate
[23] = system: T-47D breast
[24] = system: NCI-H23 lung
[25] = system: RXF 393 renal
[26] = system: SK-OV-3 ovarian
[27] = system: EKVX NSCLC
[28] = system: OVCAR-8 ovarian
[29] = system: SNB-75 CNS
[30] = system: SF-295 CNS
[31] = system: ACHN renal
[32] = system: OVCAR-4 ovarian
[33] = system: HCC-2998 colon
[34] = system: A498 renal
[35] = system: MDA-MB-435
[36] = system: SF-539 CNS
[37] = system: KM12 colon
[38] = system: BT-549 breast
[39] = system: HCT-15 colon
[40] = system: SK-MEL-5 melanoma
[41] = system: CAKI-1 renal
[42] = system: LOX IMVI melanoma
[43] = system: HOP-62 NSCLC
[44] = system: U251 CNS
[45] = system: K-562 leukemia
[46] = system: SR leukemia
[47] = system: SNB-19 CNS
[48] = system: CCRF-CEM leukemia
[49] = system: OVCAR-5 ovarian
[50] = system: MCF7 breast
[51] = system: UACC-62 melanoma
[52] = system: UO-31 renal
[53] = system: RPMI-8226 leukemia
[54] = system: HT29 colon
[55] = system: SF-268 CNS
[56] = system: SK-MEL-28 melanoma
[57] = system: HL-60(TB) leukemia

SMILES: Cc1ccc(C2=C(c3ccc(C)cc3)C3(c4ccc(C)cc4)C4C(=O)OC(=O)C4C2(c2ccc(C)cc2)S3=O)cc1 (centres undefined)
- GI50 [1]: > 100 µM
- TGI [1]: > 100 µM
- GI50 [2]: 15.5 µM
- TGI [2]: 39.4 µM
- GI50 [3]: 46.4 µM
- TGI [3]: > 100 µM
- GI50 [4]: 25.3 µM
- TGI [4]: 89.8 µM
- GI50 [5]: 23.7 µM
- TGI [5]: 92.5 µM
- GI50 [6]: 51.2 µM
- TGI [6]: > 100 µM
- GI50 [7]: 9.7 µM
- TGI [7]: 32.8 µM
- GI50 [8]: 11 µM
- TGI [8]: 48.3 µM
- GI50 [9]: 34 µM
- TGI [9]: > 100 µM
- GI50 [10]: 27.9 µM
- TGI [10]: 84 µM
- GI50 [11]: 38.1 µM
- TGI [11]: > 100 µM
- GI50 [12]: 21.3 µM
- TGI [12]: > 100 µM
- GI50 [13]: 25.7 µM
- TGI [13]: > 100 µM
- GI50 [14]: 32 µM
- TGI [14]: > 100 µM
- GI50 [15]: 24.9 µM
- TGI [15]: > 100 µM
- GI50 [16]: 16.2 µM
- TGI [16]: 78.8 µM
- GI50 [17]: 15.6 µM
- TGI [17]: 45.6 µM
- GI50 [18]: 25 µM
- TGI [18]: > 100 µM
- GI50 [19]: 25.1 µM
- TGI [19]: 87.9 µM
- GI50 [20]: 38.8 µM
- TGI [20]: > 100 µM
- GI50 [21]: 6.91 µM
- TGI [21]: 27.7 µM
- GI50 [22]: 47.6 µM
- TGI [22]: > 100 µM
- GI50 [23]: > 100 µM
- TGI [23]: > 100 µM
- GI50 [24]: 18.2 µM
- TGI [24]: 41.8 µM
- GI50 [25]: 13.9 µM
- TGI [25]: 30.4 µM
- GI50 [26]: 26.8 µM
- TGI [26]: 98.7 µM
- GI50 [27]: 42 µM
- TGI [27]: > 100 µM
- GI50 [28]: 25.7 µM
- TGI [28]: > 100 µM
- GI50 [29]: 15.3 µM
- TGI [29]: 36.8 µM
- GI50 [30]: 13.1 µM
- TGI [30]: 37.7 µM
- GI50 [31]: 15.8 µM
- TGI [31]: 83.3 µM
- GI50 [32]: 59.6 µM
- TGI [32]: > 100 µM
- GI50 [33]: 21.5 µM
- TGI [33]: 55.5 µM
- GI50 [34]: 21.9 µM
- TGI [34]: 63.4 µM
- GI50 [35]: 17.5 µM
- TGI [35]: 63.7 µM
- GI50 [36]: 6.3 µM
- TGI [36]: 31.9 µM
- GI50 [37]: 22.9 µM
- TGI [37]: 76.1 µM
- GI50 [38]: 23.9 µM
- TGI [38]: > 100 µM
- GI50 [39]: 33.5 µM
- TGI [39]: > 100 µM
- GI50 [40]: 21.3 µM
- TGI [40]: 57.6 µM
- GI50 [41]: 26.3 µM
- TGI [41]: > 100 µM
- GI50 [42]: 18.5 µM
- TGI [42]: 73.7 µM
- GI50 [43]: 16.4 µM
- TGI [43]: 42.5 µM
- GI50 [44]: 6.31 µM
- TGI [44]: 24.9 µM
- GI50 [45]: 27.7 µM
- TGI [45]: > 100 µM
- GI50 [46]: 25.9 µM
- TGI [46]: > 100 µM
- GI50 [47]: 20.9 µM
- TGI [47]: > 100 µM
- GI50 [48]: 25.2 µM
- TGI [48]: > 100 µM
- GI50 [49]: 96.4 µM
- TGI [49]: > 100 µM
- GI50 [50]: 29.2 µM
- TGI [50]: > 100 µM
- GI50 [51]: 3.57 µM
- TGI [51]: 19.6 µM
- GI50 [52]: 34.3 µM
- TGI [52]: > 100 µM
- GI50 [53]: 21.2 µM
- TGI [53]: 89.5 µM
- GI50 [54]: 25.3 µM
- TGI [54]: > 100 µM
- GI50 [55]: 38.5 µM
- TGI [55]: > 100 µM
- GI50 [56]: 28.8 µM
- TGI [56]: 96.1 µM
- GI50 [57]: 25.5 µM
- TGI [57]: > 100 µM
